Experiments:
[1] = pig model, semaglutide pharmacokinetics after endoscopic placement or IV; design: species or system Yorkshire pigs; settings: in vivo, 1.5 mg/kg
Text: Yorkshire pigs, weighing 40-80 kg each over 7 months and approximately 4-9 months of age were used. Following routine preoperative fast, pigs were anesthetized, intubated, and maintained on isoflurane anesthesia during the procedure. An indwelling marginal ear vein catheter was be inserted for blood collection, which occurred over 1-7 days. Dry GSEL powders containing permeation enhancers and semaglutide were solubilized with Tris buffer immediately before administration. An endoscope guided catheter was placed into the proximal small intestines, where the GSEL suspensions were injected. Blood was taken periodically from the ear vein catheter and the blood was immediately centrifuged down in serum collection tubes. Samples were analyzed via ELISA and LC-MS. Pigs were woken up after 6 hours and monitored until full recovery.
For the following experiment, a ratio of formulation components as presented in Table E8 was used (e.g., 2×GSEL, 6.4 mg/kg GCA, 6.4 mg/kg NHCO, with semaglutide at a final ratio of 20:2.35 permeation enhancer to semaglutide).

[2] = Franz cell permeability of semaglutide; settings: Franz cells, porcine duodenal tissue
Procedure: Franz cells were used for testing different permeation enhancers on ex vivo tissue from the small intestine, such as porcine duodenal tissue (or colon tissue where indicated). Water pumps were attached to the Franz cell rack to maintain each Franz cell at 37° C. The racks were loaded with Franz cells, and each cell was filled with 5 mL of phosphate buffered saline. Tissue was cut into ˜3.2×3.2 cm squares and any large clumps of mucus or excrement was removed before mounting onto the Franz cells. Next, gastrointestinal synthetic epithelial lining (GSEL) solutions were prepared by first weighing out dopamine HCl, polydopamine, and a permeation enhancer into a vial. […] Samples from the receiving compartment was periodically collected from 0 to 24 hours and the concentration of API was measured. […]
The same experiment was carried out, except without using a permeation enhancer in the GSEL solution. The amount of API detected in the receiving compartment for GSELS with permeation enhancer was compared to the amount of API detected in the receiving compartment for GSELs without permeation enhancer at each time point to determine the increase in permeation provided by the permeation enhancer.

absorption, in words [1]	SMILES	semaglutide permeability, comparison in words [2]
zero absorption	CC[C@H](C)[C@H](NC(=O)[C@H](Cc1ccccc1)NC(=O)[C@H](CCC(=O)O)NC(=O)[C@H](CCCCNC(=O)COCCOCCNC(=O)COCCOCCNC(=O)CC[C@H](NC(=O)CCCCCCCCCCCCCCCCC(=O)O)C(=O)O)NC(=O)[C@H](C)NC(=O)[C@H](C)NC(=O)[C@H](CCC(N)=O)NC(=O)CNC(=O)[C@H](CCC(=O)O)NC(=O)[C@H](CC(C)C)NC(=O)[C@H](Cc1ccc(O)cc1)NC(=O)[C@H](CO)NC(=O)[C@H](CO)NC(=O)[C@@H](NC(=O)[C@H](CC(=O)O)NC(=O)[C@H](CO)NC(=O)[C@@H](NC(=O)[C@H](Cc1ccccc1)NC(=O)[C@@H](NC(=O)CNC(=O)[C@H](CCC(=O)O)NC(=O)C(C)(C)NC(=O)[C@@H](N)Cc1cnc[nH]1)[C@@H](C)O)[C@@H](C)O)C(C)C)C(=O)N[C@@H](C)C(=O)N[C@@H](Cc1c[nH]c2ccccc12)C(=O)N[C@@H](CC(C)C)C(=O)N[C@H](C(=O)N[C@@H](CCCNC(=N)N)C(=O)NCC(=O)N[C@@H](CCCNC(=N)N)C(=O)NCC(=O)O)C(C)C [Control (semaglutide only), semaglutide]	–
–	O=C([O-])CCCCCCCNC(=O)c1ccccc1O.[Na+] [SNAC, sodium N-[8-(2-hydroxybenzoyl)amino]caprylate]	did not promote permeation of semaglutide as much

From patent publication US20240261411A1, “PERMEATION ENHANCERS FOR GASTROINTESTINAL SYNTHETIC EPITHELIAL LININGS” (Syntis Bio, Inc., priority 2023, published 2024)
